According to ChEMBL document CHEMBL5725428, “15-aryl prostaglandins as EP4 agonists, and methods of use thereof” (2017):

Legend:
[1] = biological target: Prostaglandin E2 receptor EP4 subtype (Homo sapiens, UniProt P35408); experiment: (§1) cAMP Assay: A 384-well drug plate was prepared to contain 6 test compounds, PGE2 and cAMP in 16 serial dilutions in triplicate, using a Biomek station. HEK-EBNA cells expressing a target PG receptor subtype (EP2 or EP4) were suspended in a stimulation buffer (HBSS, 0.1% BSA, 0.5 mM IBMX and 5 mM HEPES, pH 7.4) in a density of 10^4 cells/5 microliters. The reaction was initiated by mixing 5 microliters drug dilutions with 5 microliters of HEK-EBNA cells in a well, carried out for 30 min at room temperature, and followed by the addition of 5 microliters anti-cAMP acceptor beads in the control buffer with Tween-20 (25 mM NaCl, 0.03% Tween-20, 5 mM HEPES, pH 7.4). After 30 min in the dark at room temperature, the mixtures were incubated with 15 microliters biotinylated-cAMP/streptavidin donor beads in Lysis/Detection buffer (0.1% BSA, 0.3% Tween-20 and 5 mM HEPES, pH 7.4) for 45 min at room temperature. Fluorescence changes were read using a Fusion-alpha microplate reader.; assay type: cell-based
Prostaglandin E2 receptor EP4 subtype, sequence (P35408 whole entry): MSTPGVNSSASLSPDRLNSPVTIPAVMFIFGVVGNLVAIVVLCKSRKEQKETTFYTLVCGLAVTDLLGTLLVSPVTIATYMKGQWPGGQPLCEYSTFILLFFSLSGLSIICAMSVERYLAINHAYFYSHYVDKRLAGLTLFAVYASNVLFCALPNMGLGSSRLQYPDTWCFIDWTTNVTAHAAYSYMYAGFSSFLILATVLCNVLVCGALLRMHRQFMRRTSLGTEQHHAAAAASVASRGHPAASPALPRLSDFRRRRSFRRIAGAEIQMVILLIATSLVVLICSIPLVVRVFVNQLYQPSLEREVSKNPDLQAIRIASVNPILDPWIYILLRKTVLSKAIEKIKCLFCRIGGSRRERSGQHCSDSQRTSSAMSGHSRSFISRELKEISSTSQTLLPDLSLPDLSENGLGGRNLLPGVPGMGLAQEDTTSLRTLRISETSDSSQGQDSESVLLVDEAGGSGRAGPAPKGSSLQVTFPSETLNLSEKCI

[2] = biological target: Prostaglandin E2 receptor EP2 subtype (Homo sapiens, UniProt P43116); experiment: as §1; assay type: cell-based
Prostaglandin E2 receptor EP2 subtype, sequence (P43116 whole entry): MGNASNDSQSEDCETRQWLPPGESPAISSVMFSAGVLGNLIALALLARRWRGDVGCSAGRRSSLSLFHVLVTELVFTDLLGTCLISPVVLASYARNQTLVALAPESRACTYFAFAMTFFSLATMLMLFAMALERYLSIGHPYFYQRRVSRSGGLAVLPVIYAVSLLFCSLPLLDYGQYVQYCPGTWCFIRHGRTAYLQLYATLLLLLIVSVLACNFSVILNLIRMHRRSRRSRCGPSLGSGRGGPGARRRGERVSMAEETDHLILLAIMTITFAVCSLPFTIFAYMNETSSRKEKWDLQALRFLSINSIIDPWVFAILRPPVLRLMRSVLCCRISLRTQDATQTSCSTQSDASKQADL

Ki [1]: 1.08 µM
Ki [2]: 7.49 µM
SMILES: Cc1cc(Cl)ccc1-c1cc(C(O)/C=C/[C@H]2CCC(=O)N2CCCc2ccc(C(=O)O)cc2)ccc1F (single isomer, unassigned)
